Tests used:
sigma-2 (σ2) receptors = molecular target: T1, sigma-2 (σ2) receptors (Rattus norvegicus, UniProt Q5U3Y7); assay: Sigma-2 receptor binding, rat liver membranes; settings: read-out: Ki σ2
T1 sequence (Q5U3Y7 1-176): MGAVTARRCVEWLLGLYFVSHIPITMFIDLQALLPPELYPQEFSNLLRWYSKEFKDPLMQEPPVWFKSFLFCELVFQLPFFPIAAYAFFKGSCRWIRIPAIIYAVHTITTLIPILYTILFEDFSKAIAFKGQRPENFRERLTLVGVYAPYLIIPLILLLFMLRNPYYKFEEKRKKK

human D3 = human D3 (Homo sapiens, UniProt P35462); assay: Competitive radioligand binding, 125I-IABN, D3 dopamine receptors; settings: read-out: Ki D3
human D2(long) [1] = molecular target: T2, human D2(long) (Homo sapiens, UniProt P14416); assay: Competitive radioligand binding, 125I-IABN, D2 dopamine receptors
sigma-1 (σ1) receptors = sigma-1 (σ1) receptors (Cavia porcellus, UniProt Q60492); assay: Sigma-1 receptor binding, [3H]; parameters: species or system guinea pig; settings: read-out: Ki σ1
human D2(long) [2] = molecular target: T2, human D2(long); assay: Forskolin-dependent whole cell adenylyl cyclase inhibition assay; format: cell-based; settings: for effect on quinpirole inhibition of adenylyl cyclase: 10 nM test drug in presence of 10 nM quinpirole; for inhibition of forskolin-dependent cAMP accumulation: 10 nM, human D2long in HEK 293 cells, n = 4; for intrinsic efficacy category at D2 dopamine receptors: based on adenylyl cyclase assay

T2 sequence (P14416 whole entry): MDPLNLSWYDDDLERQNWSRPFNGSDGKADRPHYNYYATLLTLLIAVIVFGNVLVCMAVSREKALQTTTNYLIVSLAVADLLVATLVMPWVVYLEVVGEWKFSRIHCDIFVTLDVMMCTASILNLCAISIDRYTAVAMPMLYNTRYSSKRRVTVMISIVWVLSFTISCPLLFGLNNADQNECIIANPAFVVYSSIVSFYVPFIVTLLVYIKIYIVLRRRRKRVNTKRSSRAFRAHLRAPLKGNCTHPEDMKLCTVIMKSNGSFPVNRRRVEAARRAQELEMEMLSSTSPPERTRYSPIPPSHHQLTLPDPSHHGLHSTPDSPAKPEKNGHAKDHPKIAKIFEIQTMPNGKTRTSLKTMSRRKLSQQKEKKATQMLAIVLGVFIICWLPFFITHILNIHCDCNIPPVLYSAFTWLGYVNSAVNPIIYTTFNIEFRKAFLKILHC
Sequence of sigma-1 (σ1) receptors (Q60492 whole entry): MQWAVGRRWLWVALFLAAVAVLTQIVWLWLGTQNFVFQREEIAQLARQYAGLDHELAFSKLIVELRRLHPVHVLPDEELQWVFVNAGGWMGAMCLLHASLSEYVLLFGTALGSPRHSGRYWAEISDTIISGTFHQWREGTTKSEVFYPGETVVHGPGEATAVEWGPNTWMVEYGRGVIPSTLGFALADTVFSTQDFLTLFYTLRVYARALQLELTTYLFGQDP
Sequence of human D3 (P35462 whole entry): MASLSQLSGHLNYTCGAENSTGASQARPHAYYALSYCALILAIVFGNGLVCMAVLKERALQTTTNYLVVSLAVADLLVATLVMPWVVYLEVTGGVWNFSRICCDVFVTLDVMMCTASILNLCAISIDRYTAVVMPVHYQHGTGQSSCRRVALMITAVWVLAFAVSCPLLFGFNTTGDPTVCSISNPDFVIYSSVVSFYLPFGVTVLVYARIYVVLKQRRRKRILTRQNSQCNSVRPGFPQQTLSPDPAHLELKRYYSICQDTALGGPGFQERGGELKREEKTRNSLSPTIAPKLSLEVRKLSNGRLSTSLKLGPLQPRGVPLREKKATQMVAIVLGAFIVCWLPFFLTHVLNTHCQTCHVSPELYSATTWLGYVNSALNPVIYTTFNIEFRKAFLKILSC

Compound	Ki (sigma-2 (σ2) receptors) [nM]	Ki (human D3) [nM]	D3:D2 (Ki for D3 receptors/Ki for D2 receptors) (human D2(long) [1])	Ki (human D2(long) [1]; read-out: Ki D2) [nM]	Ki (sigma-1 (σ1) receptors) [nM]	effect on quinpirole inhibition of adenylyl cyclase (human D2(long) [2])	inhibition of forskolin-dependent cAMP accumulation (human D2(long) [2])	intrinsic efficacy category at D2 dopamine receptors (human D2(long) [2])
1-(Benzo[b]thiophen-2-ylmethyl)-4-(4-bromophenyl)piperidin-4-ol oxalate [Compound 20]	1960 ± 177	142 ± 27	3.0	46.8 ± 3	2.13 ± 0.44			
COc1cccc2[nH]cc(CN3CCC(O)(c4ccc(I)cc4)CC3)c12.O=C(O)C(=O)O [Compound 6, 4-(4-Iodophenyl)-1-((4-methoxy-1H-indol-3-yl)methyl)piperidin-4-ol oxalate]						able to attenuate the effect of quinpirole	no appreciable increase or decrease	neutral antagonists
COc1ccc2[nH]cc(CN3CCC(O)(c4ccc(I)cc4)CC3)c2c1.O=C(O)C(=O)O [Compound 7, 4-(4-Iodophenyl)-1-((5-methoxy-1H-indol-3-yl)methyl)piperidin-4-ol oxalate]						able to attenuate the effect of quinpirole	no appreciable increase or decrease	neutral antagonists
CN1CN(c2ccccc2)C2(CCN(Cc3coc4ccccc34)CC2)C1=O.O=C(O)C(=O)O [Compound 25, 8-(Benzofuran-3-ylmethyl)-3-methyl-1-phenyl-1,3,8-triazaspiro[4.5]decan-4-one oxalate]			0.3					

From article PMC2946321 (Bioorganic & medicinal chemistry, 2010)
